Results as given in patent US7749976B2, “Isolated PTPMT1 protein which mediates insulin production and uses thereof” (The Regents of the University of California, priority 2005, dated 2010).
Marks after values point to notes of the source that are not given here. One block for each compound: values may come before it.

What was measured:
[1] = target: T1, TC-PTP (Homo sapiens, UniProt P17706); test: Phosphatase activity of various PTPs (malachite green / radiolabeled protein substrates); format: biochemical
T1 sequence (P17706 1-415): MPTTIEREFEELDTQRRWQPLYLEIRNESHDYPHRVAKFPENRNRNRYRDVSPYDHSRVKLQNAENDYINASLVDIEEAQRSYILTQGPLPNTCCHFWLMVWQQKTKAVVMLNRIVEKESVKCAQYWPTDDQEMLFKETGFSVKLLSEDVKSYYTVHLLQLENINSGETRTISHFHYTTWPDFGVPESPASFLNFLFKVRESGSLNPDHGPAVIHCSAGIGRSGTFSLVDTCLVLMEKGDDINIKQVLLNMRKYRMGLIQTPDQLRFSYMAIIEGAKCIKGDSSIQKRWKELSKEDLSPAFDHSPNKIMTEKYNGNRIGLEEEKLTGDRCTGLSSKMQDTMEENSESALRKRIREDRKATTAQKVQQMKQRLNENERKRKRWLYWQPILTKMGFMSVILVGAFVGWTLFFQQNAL
Description: (§1) Di-C8 phosphoinosites (Echelon) and Dioleoyl-phosphatidylserine (Sigma) were dried together in a Speed Vac and resuspended via sonication in 18 μl assay buffer (100 mM sodium acetate, 50 mM bis-Tris, 50 mM Tris (pH 5.5), 10 mM DTT) to final concentrations of 50 μM and 500 μM, respectively. After prewarming at 37° C. for 5 min, reactions were initiated by the addition of 20 to 2000 ng of GST-PLIP diluted in assay buffer containing 1.0 mg/ml gelatin. Reactions were quenched after 5-30 min by the addition of 20 μl 0.1 M N-ethylmaleimide, and spun at 18,000×g for 10 min to sediment the lipid aggregates. Twenty-five microliters of the supernatant was added to 50 μl of malachite green reagent and vortexed. Samples were allowed to sit for 40 minutes for color development before measuring absorbance at 620 nm. Inorganic phosphate release was quantitated by comparison to a standard curve of KH2PO4 in dH2O.
(§2) Assays using radiolabeled protein substrates or pNPP were carried in assay buffer containing 50 mM sodium acetate, 25 mM bis-Tris, 25 mM Tris, and 2 mM DTT at pH 5.5 (GST-PLIP), 6.0 (VHR), or 7.0 (TC-PTP), at 30° C. Radiolabeled proteins and pNPP were prepared and assayed as previously reported (Taylor et al., 1997).
(§3) Due to the only recent emergence of PI(5)P as a known signaling molecule, few PTP's have been tested for activity against this substrate. To ensure that activity against PI(5)P is not a common feature of PTP's, membrane-bound di-C8 PI(5)P was assayed using a known tyrosine-specific PTP (TC-PTP) and a known dual-specific PTP (VHR) (Ishibashi et al., 1992; Zhao et al., 1992; Ruzzene et al., 1993; Zhou et al., 1994; Denu et al., 1995).

[2] = target: VHR (Homo sapiens, UniProt P51452); test: as above; format: biochemical
Description: as §1, §2, §3

[3] = target: T2, PLIP (Mus musculus, UniProt Q66GT5); test: as above; format: biochemical, murine; settings: for Phosphatase activity, PLIP: mole of phosphate released/min/mol of enzyme, pH 5.5, triplicate, this study
T2 construct: ligating a PCR product encoding full-length PLIP; made in house; host or cells: Escherichia coli BL21 (DE3) CodonPlus RIL
T2 sequence (Q66GT5 32-193): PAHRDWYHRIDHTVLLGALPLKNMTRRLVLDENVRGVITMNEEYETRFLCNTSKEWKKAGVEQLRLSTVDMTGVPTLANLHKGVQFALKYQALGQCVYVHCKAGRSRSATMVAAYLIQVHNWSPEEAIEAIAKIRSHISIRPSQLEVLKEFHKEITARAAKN
Description: Recombinant murine PLIP was expressed as a fusion protein with N-terminal GST and 6-His tags in Escherichia coli BL21 (DE3) CodonPlus RIL cells (Stratagene). The expression construct was assembled by ligating a PCR product encoding full-length PLIP into the 5′-EcoR1 and 3′-Xho1 sites of a modified pET41 vector (pSJ6), kindly provided by Zhaohui Xu (University of Michigan). […] Cultures were then chilled on ice for 20 min, supplied with fresh antibiotics, induced with IPTG to a final concentration of 0.4 mM, and allowed to grow overnight @ 25° C., as previously described (Taylor and Dixon, 2003). All subsequent steps were performed @ 4° C. The cultures were pelleted by spinning @ 6000 rpm for 10 min in a Sorvall GSA rotor, resuspended in 30 ml of buffer (20 mM Imidazole, 50 mM Tris pH 7.4, 300 mM NaCl) with Complete protease inhibitors (Roche), and lysed via French Press. Insoluble material was removed by centrifugation @ 50,000 rpm for 30 min. The fusion protein was purified from the soluble supernatant first over Ni^2+ agarose beads, and then by successive separation on Superdex 75 and 200 gel filtration columns (Amersham). The resulting protein was concentrated, flash frozen in liquid nitrogen, and stored @−80° C. in 25% glycerol, 2 mM EDTA, and 2 mM DTT until use.
as §1, §2

[4] = target: PTEN (Homo sapiens, UniProt P60484); test: Phosphatase activity of various PTPs; format: biochemical; settings: for Phosphatase activity, PTEN: phosphoinositide substrates, this study
[5] = target: T3, MTM1 (Homo sapiens, UniProt Q13496); test: Phosphatase activity of various PTPs; format: biochemical
T3 sequence (Q13496 1-603): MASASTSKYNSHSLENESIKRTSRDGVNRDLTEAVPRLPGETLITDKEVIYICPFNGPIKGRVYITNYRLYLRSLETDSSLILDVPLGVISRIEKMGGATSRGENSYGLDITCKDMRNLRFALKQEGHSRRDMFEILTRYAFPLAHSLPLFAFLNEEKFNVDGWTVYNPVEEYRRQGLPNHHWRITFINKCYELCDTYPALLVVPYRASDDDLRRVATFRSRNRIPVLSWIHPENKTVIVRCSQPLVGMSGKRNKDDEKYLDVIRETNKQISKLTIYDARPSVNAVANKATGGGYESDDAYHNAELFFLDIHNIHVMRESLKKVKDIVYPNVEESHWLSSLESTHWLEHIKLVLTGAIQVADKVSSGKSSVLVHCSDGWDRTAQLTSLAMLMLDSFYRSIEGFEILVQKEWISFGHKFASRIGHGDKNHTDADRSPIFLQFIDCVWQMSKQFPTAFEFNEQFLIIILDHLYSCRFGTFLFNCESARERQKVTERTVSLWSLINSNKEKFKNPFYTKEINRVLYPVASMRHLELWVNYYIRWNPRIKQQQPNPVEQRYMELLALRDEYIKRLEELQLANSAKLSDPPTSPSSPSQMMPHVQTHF

[6] = target: T2, PLIP; test: Kinetic analysis of PLIP phosphatase activity (saturation kinetics); format: biochemical, murine
Description: as §2
To further explore PLIP's propensity to act as a protein phosphatase, a kinetic analysis of its activity toward the artificial phosphotyrosine analog, para-nitrophenyl phosphate (pNPP), alongside with di-C8 PI(5)P were performed (Taylor et al., 1997). FIG. 3 illustrates the kinetic analysis of PLIP phosphatase activity. Saturation kinetics for PLIP against pNPP (A) and water-soluble di-C8 PI(5)P (B) are shown. V (reaction velocity) is in units of pmol/(min μg).

[7] = target: T2, PLIP; test: Activity of PLIP against water soluble PI(5)P derivatives of varying acyl chain length; format: biochemical, murine; settings: water soluble substrate
[8] = target: T3, MTM1; settings: Ref. 32; cited from earlier work
[9] = mole of phosphate released/min/mol of enzyme, triplicate, this study

Chain of PTEN (P60484 whole entry, species assumed): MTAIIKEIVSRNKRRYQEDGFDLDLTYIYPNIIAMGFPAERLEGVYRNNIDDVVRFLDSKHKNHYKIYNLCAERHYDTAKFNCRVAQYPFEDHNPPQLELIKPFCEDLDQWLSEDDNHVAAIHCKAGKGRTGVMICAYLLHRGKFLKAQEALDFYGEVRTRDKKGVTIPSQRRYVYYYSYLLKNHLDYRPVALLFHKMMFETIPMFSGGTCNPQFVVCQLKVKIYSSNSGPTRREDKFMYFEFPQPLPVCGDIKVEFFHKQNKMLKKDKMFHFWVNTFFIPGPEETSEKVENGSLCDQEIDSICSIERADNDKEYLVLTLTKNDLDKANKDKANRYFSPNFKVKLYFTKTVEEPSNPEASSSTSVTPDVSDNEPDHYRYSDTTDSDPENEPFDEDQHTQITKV
Chain of VHR (P51452 whole entry, species assumed): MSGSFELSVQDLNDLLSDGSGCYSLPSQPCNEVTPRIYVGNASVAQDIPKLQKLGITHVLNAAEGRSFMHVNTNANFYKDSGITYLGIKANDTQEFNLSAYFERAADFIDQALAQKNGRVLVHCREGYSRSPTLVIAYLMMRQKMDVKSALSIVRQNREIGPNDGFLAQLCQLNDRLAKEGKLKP

TC-PTP activity ([1]; membrane-bound di-C8 PI(5)P): barely detectable above background
Phosphatase activity, TC-PTP [1, 9]: ~0.0^b mol/(min mol)
VHR activity ([2]; membrane-bound di-C8 PI(5)P): barely detectable above background
Phosphatase activity, VHR [2, 9]: ~0.0^b mol/(min mol)
PLIP activity, fold greater than against PI(3,5)P2 ([3]; di-C8 PI's in lipid bilayer with phosphatidylserine carrier lipid): 44 fold
Phosphatase activity, PLIP [3]: 135^b mol/(min mol)
PTEN: fold less efficiency than toward preferred substrate [4]: 17 fold
Phosphatase activity, PTEN [4]: 20.4^b mol/(min mol)
MTM1: fold less efficiency than toward preferred substrate [5]: 200 fold
Km ([6]; PLIP against water-soluble di-C8 PI(5)P): 0.0375 mM
Fold increase in PLIP activity versus di-C4 PI(5)P [7]: 10 fold
Compound: phosphatidylinositol-5 phosphate [PI (5) P]
Phosphatase activity, MTM1 [8]: 22.7^d mol/(min mol)

Fold increase in PLIP activity versus inositol (1,5)P2 [7]: 10 fold
Compound: CCCC(=O)OCC(COP(=O)(O)OC1C(O)C(O)C(O)C(OP(=O)(O)O)C1O)OC(=O)CCC (stereo not drawn) [di-C4 PI(5)P]

Phosphatase activity, PLIP [3]: 1.3^b mol/(min mol)
Phosphatase activity, PTEN [4]: 77.9^b mol/(min mol)
Compound: CCCCCCCC(=O)OC[C@H](COP(=O)(O)O[C@@H]1[C@H](O)[C@H](OP(=O)(O)O)[C@@H](O)[C@H](O)[C@H]1O)OC(=O)CCCCCCC [PI (3) P]
Phosphatase activity, MTM1 [8]: 4470^d mol/(min mol)

Phosphatase activity, PLIP [3]: 3.1^b mol/(min mol)
PTEN fold preference over PI(3,5)P2 ([4]; di-C8 PIs in lipid bilayer with phosphatidylserine carrier lipid): 1.8 fold
Phosphatase activity, PTEN [4]: 346^b mol/(min mol)
Compound: CCCCCCCC(=O)OC[C@H](COP(=O)(O)OC1[C@H](O)[C@H](OP(=O)(O)O)C(OP(=O)(O)O)[C@H](OP(=O)(O)O)[C@H]1O)OC(=O)CCCCCCC (stereo partly drawn) [PI (3, 4, 5) P3]
Phosphatase activity, MTM1 [8]: 2.1^d mol/(min mol)

The remaining lines, values behind:

Compound: Nc1ncnc2c1ncn2[C@@H]1O[C@H](COP(=O)(O)OP(=O)(O)OP(=O)(O)O)[C@@H](O)[C@H]1O [ATP]
ATPase activity of PTPMT1 in vitro [3]: extremely poor

Compound: O=[N+]([O-])c1ccc(OP(=O)(O)O)cc1 [pNPP, para-nitrophenyl phosphate]
Km fold higher than Km for di-C8 PI(5)P [6]: more than 150 fold
Km ([6]; PLIP against pNPP): 5.9 mM

Compound: casein
PLIP activity, fold lower than against PI(5)P ([3]; radiolabeled protein substrates): approximately 1000 fold
